Where no end group is shown, it is not given here.
How the values were obtained:
[1] = system: SV40 transformed hamster beta cells (HIT); experiment: Growth hormone inhibition: GRF-stimulated 3H inositol phosphate (IP) release and growth hormone (GH) accumulation, RIA of supernatant; format: cell-based; settings: for [GH] / [IP]: 15 min
Description: An assay was performed to study the effect of probursin in combination with growth hormone releasing factor (GRF) as this combination effects the release of ^3 H inositol phosphate (IP) and growth hormone (GH) accummulation in SV40 transformed hamster beta cells (HIT). The experiment was performed according to the procedures described in M. J. Berridge et al, cited above.
Briefly described, commercially available HIT cells were incubated at 37° C. for 1 hour in metabolic RPMI medium with 5% fetal calf serum (FCS). GRF in varying concentrations indicated in the Table below was added to the cell culture and incubated for 15 minutes at 37° C. The cells were then centrifuged at 800 rpm and the supernatant collected. Levels of GH and IP were measured in the supernatant by radioimmunoassay (RIA) also according to Berridge et al. These measurements formed the GRF control.
The same procedure was followed without the addition of GRF and is indicated below as the control.
Similarly, to indicate the effect of probursin on GRF, the procedure above was followed except that GRF and probursin at the appropriate concentrations indicated in the Table below were added to the cells together and followed by 15 minutes incubation and centrifugation. When the supernatant was measured by RIA as described above, the resulting concentrations of IP and GH were determined as illustrated in the Table below.

MOPC-315 cells = experiment: Cyclic GMP assay in MOPC-315 cells; format: cell-based; settings: 0 to 1000 micrograms/ml, FIG. 5B
Daudi cells = experiment: Cyclic GMP assay in Daudi cells; format: cell-based; settings: 0 to 1000 micrograms/ml, FIG. 5A
Description: Daudi cells were freshly seeded and grown for 2 days with harvesting as described in T. Audhya et al, Arch. Biochem Biophys., 234:167-177 (1984). The cells were washed 3 times in PBS and resuspended in RPMI 1640 at a concentration of 1.0×10^7 cells/ml and were allowed to equilibrate at 37° C. for 30 minutes before the addition of the test compounds (25 ul) of bursin and probursin, and control peptides porcine insulin (A), equine myoglobin (B) and bovine growth hormone (C). The incubation was allowed to proceed in a shaking water bath for 4-5 minutes and was then terminated by addition of 1 ml ice-cold TCA (10%).
The cells in TCA were homogenized and sonicated to release cyclic nucleotide. The suspension was centrifuged at 3000×g for 20 minutes at 4° C. The resulting precipitate was dissolved in 0.1 N NaOH to determine the protein content. TCA was removed from the supernatant fraction by extracting 4 times with 5 ml of water-saturated diethyl ether. […]
Dose-response curves from 0 to 1000 micrograms/ml were evaluated for bursin, probursin and controls. […] A threshold activity was determined for each peptide tested. […] Test results were considered positive if the level of cyclic GMP was greater than 1.52 times (2 standard deviations) that determined for the parallel negative control.

Anti-bursin antiserum = experiment: ELISA blocking of anti-bursin antiserum binding by absorbants; set-up: species or system rabbit; settings: FIG. 3B
Description: Antisera were tested for activity in the following ELISA protocol. The assays were performed according to the method of Voller et al, Bull. WHO, 53:55 (1976). Briefly, polyvinyl chloride microtiter plates (Fisher Scientific, Springfield, N.J.) were coated overnight with 100 ul/well of 10 ug/ml solution of tetramer of probursin in 0.1 M phosphate buffer, pH 7.2. Plates were washed and were postcoated with 150 ul/well of 0.5 percent bovine serum albumin in PBS, pH 7.2, for one hour at room temperature. Plates were washed, dried at 37° C. for 6-24 hours and sealed in dessicated packages and stored at 4° C.
Antisera to be tested were diluted in PBS containing 0.05 percent Tween 20. One hundred ul of the diluted sera were added per well in triplicates. Normal rabbit or mouse serum was used as the negative control. After 60 minutes of incubation at room temperature the plates were washed three times with PBS Tween-20. One hundred ul of alkaline phosphatase conjugated to affinity-purified goat anti-rabbit IgG (heavy and light chains) diluted 1:2000 in PBS Tween-20 were added to each well. The plates were incubated at room temperature for 60 minutes. […] After 30 minutes of incubation at room temperature the reaction was terminated with the addition of 50 ul/well of 5 N NaOH and the optical density was read at 410 nm. […]

[2] = GRF 0.1 nM alone, HIT cell supernatant
[3] = GRF 1 nM alone, HIT cell supernatant
[4] = GRF 10 nM alone, HIT cell supernatant
[5] = GRF (0.1 nM) + Probursin (.1 μM)
[6] = GRF (1 nM) + Probursin (0.1 μM)
[7] = GRF (1 nM) + Probursin (1.0 μM)
[8] = GRF (10 nM) + Probursin (10.0 μM)

Row | Substance | [GH] [1, 2] | [IP] [1, 2] | [GH] [1, 3] | [IP] [1, 3] | [GH] [1, 4] | [IP] [1, 4] | induction of intracellular cyclic GMP (dose-response) (MOPC-315 cells) | induction of intracellular cyclic GMP (dose-response) (Daudi cells) | [GH] [1, 5] | [IP] [1, 5] | [GH] [1, 6] | [IP] [1, 6] | [GH] [1, 7] | [IP] [1, 7] | [GH] [1, 8] | [IP] [1, 8] | effect on growth hormone releasing factor action (IP and GH) ([1]; HIT cells, summary in words) | release of growth hormone ([1]; summary in words, refers to Example 6) | blocking of anti-bursin antiserum binding (Anti-bursin antiserum)
1 | GRF: growth hormone releasing factor, stimulus in HIT cell assay (YADAIFTNSYRKVLGQLSARKLLQDIMSRQQGESNQERGARARL; ends and bridges not checked; UniProt P01286 32-75, looked up) [reference compound] | 162 ± 4 n/ml | 489 ± 19 cpm | 648 ± 26 n/ml | 2810 ± 290 cpm | 1162 ± 84 n/ml | 8962 ± 821 cpm |  |  |  |  |  |  |  |  |  |  |  |  | 
2 | FFWKTKPRKHGGRR [Probursin, Phe-Phe-Trp-Lys-Thr-Lys-Pro-Arg-Lys-His-Gly-Gly-Arg-Arg] |  |  |  |  |  |  | active | active | 35 ± 4 n/ml | 239 ± 13 cpm | 480 ± 31 n/ml | 1911 ± 310 cpm | 77 ± 6 n/ml | 444 ± 22 cpm | 29 ± 3 n/ml | 382 ± 16 cpm | marked suppression | inhibit | blocked

From patent US4994554A, “Probursin” (Immunobiology Research Institute, Inc., priority 1988, dated 1991)
